{
  "source": "paper PMC5218480",
  "about": "(PLoS ONE, 2017)",
  "tested_on": "MV-4-11 cells",
  "assay": "Gene expression microarray analysis (Affymetrix PrimeView) and GSEA",
  "assay_type": "cell-based, human",
  "design": "RFU PODN (11730768_x_at) / Fold change /veh PODN (11730768_x_at) / RFU LINC00158 (11744669_a_at) / Fold change /veh LINC00158 (11744669_a_at) / RFU DUSP10 (11751237_a_at) / Fold change /veh DUSP10 (11751237_a_at) / RFU ID3 (11757404_x_at) / Fold change /veh ID3 (11757404_x_at) / RFU PLEKHG5 (11737974_s_at) / Fold change /veh PLEKHG5 (11737974_s_at) / RFU LRRC4B (11730491_at) / Fold change /veh LRRC4B (11730491_at) / RFU GIMAP4 (11747438_a_at) / Fold change /veh GIMAP4 (11747438_a_at) / RFU KRT8 (11758183_x_at) / Fold change /veh KRT8 (11758183_x_at) / RFU CNN1 (11734310_a_at) / Fold change /veh CNN1 (11734310_a_at) / RFU VPS37D (11726825_at) / Fold change /veh VPS37D (11726825_at) / RFU C10orf10 (11716522_x_at) / Fold change /veh C10orf10 (11716522_x_at) / RFU KIR2DL2 /// KIR2DL4 /// KIR2DL5A /// KIR2DL5B /// KIR2DS1 /// KIR2DS2 /// KIR2DS3 /// KIR2DS4 /// KIR3DL3 /// KIR3DL3 /// KIR3DS1 (11738374_at) / Fold change /veh KIR2DL2 /// KIR2DL4 /// KIR2DL5A /// KIR2DL5B /// KIR2DS1 /// KIR2DS2 /// KIR2DS3 /// KIR2DS4 /// KIR3DL3 /// KIR3DL3 /// KIR3DS1 (11738374_at) / RFU C1QL1 (11718748_at) / Fold change /veh C1QL1 (11718748_at) / RFU TMPRSS4 (11747572_a_at) / Fold change /veh TMPRSS4 (11747572_a_at) / RFU HAMP (11756126_x_at) / Fold change /veh HAMP (11756126_x_at) / RFU RNFT2 (11725882_a_at) / Fold change /veh RNFT2 (11725882_a_at) / RFU NR4A2 (11747474_a_at) / Fold change /veh NR4A2 (11747474_a_at) / RFU ABCC12 (11746883_a_at) / Fold change /veh ABCC12 (11746883_a_at) / RFU TMEM136 (11760407_x_at) / Fold change /veh TMEM136 (11760407_x_at) / RFU CLDN22 /// WWC2 (11732394_at) / Fold change /veh CLDN22 /// WWC2 (11732394_at) / RFU HLA-DPB1 (11760878_x_at) / Fold change /veh HLA-DPB1 (11760878_x_at) / RFU SPINT1 (11716480_a_at) / Fold change /veh SPINT1 (11716480_a_at) / RFU GAP43 (11754022_s_at) / Fold change /veh GAP43 (11754022_s_at) / RFU A4GNT (11735810_at) / Fold change /veh A4GNT (11735810_at) / RFU PRB3 (11715151_x_at) / Fold change /veh PRB3 (11715151_x_at) / RFU TUBB4B (11761932_at) / Fold change /veh TUBB4B (11761932_at) / RFU CAPN14 (11732068_a_at) / Fold change /veh CAPN14 (11732068_a_at) / RFU TMCC2 (11721928_a_at) / Fold change /veh TMCC2 (11721928_a_at) / RFU IRGQ (11745062_a_at) / Fold change /veh IRGQ (11745062_a_at) / RFU FAM174B (11720279_a_at) / Fold change /veh FAM174B (11720279_a_at) / RFU TMPRSS4 (11748680_a_at) / Fold change /veh TMPRSS4 (11748680_a_at) / RFU FAM212B (11763350_a_at) / Fold change /veh FAM212B (11763350_a_at) / RFU PLEKHG5 (11743358_a_at) / Fold change /veh PLEKHG5 (11743358_a_at) / RFU ZSCAN30 (11745921_a_at) / Fold change /veh ZSCAN30 (11745921_a_at) / RFU CMKLR1 (11741424_a_at) / Fold change /veh CMKLR1 (11741424_a_at) / RFU LOC101060620 /// MAPK8IP1 (11723275_at) / Fold change /veh LOC101060620 /// MAPK8IP1 (11723275_at) / RFU SPTSSB (11747773_x_at) / Fold change /veh SPTSSB (11747773_x_at) / RFU PRSS12 (11739890_at) / Fold change /veh PRSS12 (11739890_at) / RFU BIN1 (11741810_x_at) / Fold change /veh BIN1 (11741810_x_at) / RFU WNT11 (11732464_a_at) / Fold change /veh WNT11 (11732464_a_at) / RFU C10orf10 (11716521_a_at) / Fold change /veh C10orf10 (11716521_a_at) / RFU C5orf56 (11738089_at) / Fold change /veh C5orf56 (11738089_at) / RFU CYB561 (11721691_x_at) / Fold change /veh CYB561 (11721691_x_at) / RFU ANKRD19P (11752326_a_at) / Fold change /veh ANKRD19P (11752326_a_at) / RFU OR2T12 /// OR2T33 /// OR2T8 (11738714_s_at) / Fold change /veh OR2T12 /// OR2T33 /// OR2T8 (11738714_s_at) / RFU VCAN (11748164_a_at) / Fold change /veh VCAN (11748164_a_at) / RFU JSRP1 (11732532_at) / Fold change /veh JSRP1 (11732532_at) / RFU KRTAP10-11 (11738290_x_at) / Fold change /veh KRTAP10-11 (11738290_x_at) / RFU MYO3A (11730013_a_at) / Fold change /veh MYO3A (11730013_a_at) / RFU EBF3 (11725865_a_at) / Fold change /veh EBF3 (11725865_a_at) / RFU CAMK2N1 (11719241_x_at) / Fold change /veh CAMK2N1 (11719241_x_at) / RFU C5orf56 (11738088_a_at) / Fold change /veh C5orf56 (11738088_a_at) / RFU OLFML3 (11715873_a_at) / Fold change /veh OLFML3 (11715873_a_at) / RFU LOC100653217 /// NTM (11731650_a_at) / Fold change /veh LOC100653217 /// NTM (11731650_a_at) / RFU MAPK11 (11762145_a_at) / Fold change /veh MAPK11 (11762145_a_at) / RFU FIZ1 (11724087_x_at) / Fold change /veh FIZ1 (11724087_x_at) / RFU OASL (11726364_x_at) / Fold change /veh OASL (11726364_x_at) / RFU SOX15 (11748057_x_at) / Fold change /veh SOX15 (11748057_x_at) / RFU CD79A (11719716_a_at) / Fold change /veh CD79A (11719716_a_at) / RFU HIST1H1D (11736915_at) / Fold change /veh HIST1H1D (11736915_at) / RFU CASKIN2 (11723855_a_at) / Fold change /veh CASKIN2 (11723855_a_at) / RFU LOC730098 (11760151_x_at) / Fold change /veh LOC730098 (11760151_x_at) / RFU OR4N2 (11742367_at) / Fold change /veh OR4N2 (11742367_at) / RFU PRRT2 (11749266_a_at) / Fold change /veh PRRT2 (11749266_a_at) / RFU SNX32 (11753110_a_at) / Fold change /veh SNX32 (11753110_a_at) / RFU CDHR5 (11726645_a_at) / Fold change /veh CDHR5 (11726645_a_at) / RFU RCAN1 (11760418_a_at) / Fold change /veh RCAN1 (11760418_a_at) / RFU FAM167A (11723789_a_at) / Fold change /veh FAM167A (11723789_a_at) / RFU FAM26E (11764081_at) / Fold change /veh FAM26E (11764081_at) / RFU ISYNA1 (11749810_s_at) / Fold change /veh ISYNA1 (11749810_s_at) / RFU ACY1 (11761880_at) / Fold change /veh ACY1 (11761880_at) / RFU 11764098_at / Fold change /veh 11764098_at / RFU SAMD14 (11745864_x_at) / Fold change /veh SAMD14 (11745864_x_at) / RFU NPB (11741838_a_at) / Fold change /veh NPB (11741838_a_at) / RFU TMPRSS6 (11731388_a_at) / Fold change /veh TMPRSS6 (11731388_a_at) / RFU KRTAP10-2 (11738614_at) / Fold change /veh KRTAP10-2 (11738614_at) / RFU ARHGAP8 /// PRR5-ARHGAP8 (11727945_x_at) / Fold change /veh ARHGAP8 /// PRR5-ARHGAP8 (11727945_x_at) / RFU KRTAP5-7 /// NADSYN1 (11734609_at) / Fold change /veh KRTAP5-7 /// NADSYN1 (11734609_at) / RFU RASL12 (11751679_a_at) / Fold change /veh RASL12 (11751679_a_at) / RFU CDKN2B (11736163_a_at) / Fold change /veh CDKN2B (11736163_a_at) / RFU PRF1 (11729649_at) / Fold change /veh PRF1 (11729649_at) / RFU, ZNF638 /// ZNF638-IT1 / Fold change vs veh, ZNF638 /// ZNF638-IT1 / RFU, PANK3 / Fold change vs veh, PANK3 / RFU, SH3YL1 / Fold change vs veh, SH3YL1 / RFU, ZEB2 / Fold change vs veh, ZEB2 / RFU, NRIP1 / Fold change vs veh, NRIP1 / RFU, PTTG1IP / Fold change vs veh, PTTG1IP / RFU, CAPN2 / Fold change vs veh, CAPN2 / RFU, MED14 / Fold change vs veh, MED14 / RFU, SNORA58 / Fold change vs veh, SNORA58 / RFU, C1orf63 / Fold change vs veh, C1orf63 / RFU, LRRFIP1 / Fold change vs veh, LRRFIP1 / RFU, NDUFAF7 / Fold change vs veh, NDUFAF7 / RFU, SLC12A2 / Fold change vs veh, SLC12A2 / RFU, IBTK / Fold change vs veh, IBTK / RFU, ESF1 / Fold change vs veh, ESF1 / Fold change vs veh, TMEM50B / RFU, TAOK1 / Fold change vs veh, TAOK1 / RFU, ACBD3 / Fold change vs veh, ACBD3 / RFU, TMA16 / Fold change vs veh, TMA16 / RFU, RWDD3 / Fold change vs veh, RWDD3 / RFU, BCAT1 / Fold change vs veh, BCAT1 / RFU, EDEM3 / Fold change vs veh, EDEM3 / RFU, TMEM33 / Fold change vs veh, TMEM33 / RFU, WDR75 / Fold change vs veh, WDR75 / RFU, AHCTF1 / Fold change vs veh, AHCTF1 / RFU, TFRC / Fold change vs veh, TFRC / RFU, ZDHHC17 / Fold change vs veh, ZDHHC17 / RFU, NOM1 / Fold change vs veh, NOM1 / RFU, ARL8B / Fold change vs veh, ARL8B / RFU, ZBTB11 / Fold change vs veh, ZBTB11 / RFU, TAMM41 / Fold change vs veh, TAMM41 / RFU, KIAA1704 /// LOC100996395 / Fold change vs veh, KIAA1704 /// LOC100996395 / RFU, ING1 / Fold change vs veh, ING1 / RFU, TRMT61B / Fold change vs veh, TRMT61B / RFU, FUBP3 / Fold change vs veh, FUBP3 / RFU, TP53 / Fold change vs veh, TP53 / RFU, TNKS2 / Fold change vs veh, TNKS2 / RFU, ZFP14 / Fold change vs veh, ZFP14 / RFU, ACTR2 / Fold change vs veh, ACTR2 / RFU, PPP3R1 / Fold change vs veh, PPP3R1 / RFU, PIK3R1 / Fold change vs veh, PIK3R1 / RFU, HNRNPA1 / Fold change vs veh, HNRNPA1 / RFU, RNF170 / Fold change vs veh, RNF170 / RFU, ZNF28 / Fold change vs veh, ZNF28 / RFU, RNGTT / Fold change vs veh, RNGTT / RFU, OGT / Fold change vs veh, OGT / RFU, BRD1 / Fold change vs veh, BRD1 / RFU, MARS / Fold change vs veh, MARS / RFU, ZNF655 / Fold change vs veh, ZNF655 / RFU, FAHD1 / Fold change vs veh, FAHD1 / RFU, BDP1 / Fold change vs veh, BDP1 / RFU, LRRCC1 / Fold change vs veh, LRRCC1 / RFU, ARID1A / Fold change vs veh, ARID1A / RFU, ZNF146 / Fold change vs veh, ZNF146 / RFU, ZNF330 / Fold change vs veh, ZNF330 / RFU, GPN3 / Fold change vs veh, GPN3 / RFU, C9orf123 / Fold change vs veh, C9orf123 / RFU, N4BP2L2 / Fold change vs veh, N4BP2L2 / RFU, ARFIP1 / Fold change vs veh, ARFIP1 / RFU, FAM179B / Fold change vs veh, FAM179B / RFU, BCL10 / Fold change vs veh, BCL10 / RFU, UHRF1BP1L / Fold change vs veh, UHRF1BP1L / RFU, BET1 / Fold change vs veh, BET1 / RFU, CNOT2 / Fold change vs veh, CNOT2 / RFU, ZNF268 / Fold change vs veh, ZNF268 / Fold change vs veh, ZNF507 / RFU, DGCR2 / Fold change vs veh, DGCR2 / RFU, WDSUB1 / Fold change vs veh, WDSUB1 / Fold change vs veh, HSP90B1 /// MIR3652 / RFU, ADSS / Fold change vs veh, ADSS / RFU, GK / Fold change vs veh, GK / RFU, ZNF148 / Fold change vs veh, ZNF148 / RFU, TAF9 / Fold change vs veh, TAF9 / RFU, SLC1A5 / Fold change vs veh, SLC1A5 / RFU, SLMO2 / Fold change vs veh, SLMO2 / RFU, ABCC4 / Fold change vs veh, ABCC4 / RFU, LOC101060439 /// RAP1B / Fold change vs veh, LOC101060439 /// RAP1B / RFU, RFX7 / Fold change vs veh, RFX7 / RFU, GTPBP10 / Fold change vs veh, GTPBP10 / RFU, CNEP1R1 / Fold change vs veh, CNEP1R1 / RFU, BIVM-ERCC5 /// ERCC5 / Fold change vs veh, BIVM-ERCC5 /// ERCC5 / RFU, ILF3 / Fold change vs veh, ILF3 / RFU 11762660_at / Fold change /veh 11762660_at / RFU VCAN (11757783_s_at) / Fold change /veh VCAN (11757783_s_at) / RFU DDX43 (11728927_at) / Fold change /veh DDX43 (11728927_at) / RFU KRT8 (11758188_x_at) / Fold change /veh KRT8 (11758188_x_at) / RFU NKD1 (11759106_at) / Fold change /veh NKD1 (11759106_at) / RFU SRD5A1 (11742802_a_at) / Fold change /veh SRD5A1 (11742802_a_at) / RFU TPSAB1 /// TPSB2 (11721975_s_at) / Fold change /veh TPSAB1 /// TPSB2 (11721975_s_at) / RFU GSTM3 (11746129_a_at) / Fold change /veh GSTM3 (11746129_a_at) / RFU IL23R (11737362_x_at) / Fold change /veh IL23R (11737362_x_at) / RFU TMEM51 (11727254_a_at) / Fold change /veh TMEM51 (11727254_a_at) / RFU PIWIL2 (11732686_x_at) / Fold change /veh PIWIL2 (11732686_x_at) / RFU ORM1 (11744905_x_at) / Fold change /veh ORM1 (11744905_x_at) / RFU CCDC152 (11743942_at) / Fold change /veh CCDC152 (11743942_at) / RFU ECM1 (11717891_a_at) / Fold change /veh ECM1 (11717891_a_at) / RFU IL23R (11748794_a_at) / Fold change /veh IL23R (11748794_a_at) / RFU TNFAIP8L3 (11732012_x_at) / Fold change /veh TNFAIP8L3 (11732012_x_at) / RFU MBOAT4 (11741988_at) / Fold change /veh MBOAT4 (11741988_at) / RFU 11764193_at / Fold change /veh 11764193_at / RFU TMEM53 (11763286_at) / Fold change /veh TMEM53 (11763286_at) / RFU MAGEB2 (11727129_at) / Fold change /veh MAGEB2 (11727129_at) / RFU TMEM200A (11744735_a_at) / Fold change /veh TMEM200A (11744735_a_at) / RFU CCDC152 (11751479_a_at) / Fold change /veh CCDC152 (11751479_a_at) / RFU FAM211A (11726209_a_at) / Fold change /veh FAM211A (11726209_a_at) / RFU RGS16 (11746705_a_at) / Fold change /veh RGS16 (11746705_a_at) / RFU VCAN (11755009_s_at) / Fold change /veh VCAN (11755009_s_at) / RFU RHOB (11743442_s_at) / Fold change /veh RHOB (11743442_s_at) / RFU RGS16 (11720943_a_at) / Fold change /veh RGS16 (11720943_a_at) / RFU RGS16 (11720944_at) / Fold change /veh RGS16 (11720944_at) / RFU, VPS4B / Fold change vs veh, VPS4B / RFU, CREB1 / Fold change vs veh, CREB1 / RFU, DNAJC13 / Fold change vs veh, DNAJC13 / RFU, GNAQ / Fold change vs veh, GNAQ / RFU, CDK5R1 / Fold change vs veh, CDK5R1 / RFU, ZRANB3 / Fold change vs veh, ZRANB3 / RFU, CUL4A / Fold change vs veh, CUL4A / RFU, CCNY / Fold change vs veh, CCNY / RFU, UFL1 / Fold change vs veh, UFL1 / RFU, COG3 / Fold change vs veh, COG3 / RFU, DIAPH2 / Fold change vs veh, DIAPH2 / RFU, SKA2 / Fold change vs veh, SKA2 / RFU, AFF3 / Fold change vs veh, AFF3 / RFU, LMF1 / Fold change vs veh, LMF1 / RFU, IPO11 / Fold change vs veh, IPO11 / RFU, DFFB / Fold change vs veh, DFFB / RFU, FOXP1 / Fold change vs veh, FOXP1 / RFU, CARD8 / Fold change vs veh, CARD8 / RFU, STRN3 / Fold change vs veh, STRN3 / RFU, ADK / Fold change vs veh, ADK / RFU, RASSF2 / Fold change vs veh, RASSF2 / RFU, WIPF1 / Fold change vs veh, WIPF1 / RFU, LARP1B / Fold change vs veh, LARP1B / RFU, RASA1 / Fold change vs veh, RASA1 / RFU, RB1 / Fold change vs veh, RB1 / RFU, PPFIA1 / Fold change vs veh, PPFIA1 / RFU, MAT2A / Fold change vs veh, MAT2A / RFU, CCT5 / Fold change vs veh, CCT5 / RFU, WDR92 / Fold change vs veh, WDR92 / RFU, CUX1 / Fold change vs veh, CUX1 / RFU, TTC7A / Fold change vs veh, TTC7A / RFU, TMEM135 / Fold change vs veh, TMEM135 / RFU, DEPTOR / Fold change vs veh, DEPTOR / RFU, CPM / Fold change vs veh, CPM / RFU, DNAJB6 / Fold change vs veh, DNAJB6 / RFU, CACNA2D3 / Fold change vs veh, CACNA2D3 / RFU, DTX4 / Fold change vs veh, DTX4 / RFU, TFCP2 / Fold change vs veh, TFCP2 / RFU, GMCL1 /// GMCL1P1 / Fold change vs veh, GMCL1 /// GMCL1P1 / RFU, AEBP2 / Fold change vs veh, AEBP2 / RFU, SNHG1 /// SNORD22 /// SNORD25 /// SNORD26 /// SNORD27 /// SNORD28 /// SNORD29 /// SNORD31 / Fold change vs veh, SNHG1 /// SNORD22 /// SNORD25 /// SNORD26 /// SNORD27 /// SNORD28 /// SNORD29 /// SNORD31 / Fold change (Aza/veh), C12orf56 (ProbeSet 11735607_a_at) / Fold change (ACY-1035/veh), C12orf56 (ProbeSet 11735607_a_at) / Fold change (Aza/veh), FGFR1OP (ProbeSet 11751329_s_at) / Fold change (ACY-1035/veh), FGFR1OP (ProbeSet 11751329_s_at) / Fold change (Aza/veh), VPS36 (ProbeSet 11739960_a_at) / Fold change (ACY-1035/veh), VPS36 (ProbeSet 11739960_a_at) / RFU SYPL1 (11715823_x_at) / Fold change /veh SYPL1 (11715823_x_at) / RFU IGFBP7 (11715501_s_at) / Fold change /veh IGFBP7 (11715501_s_at) / RFU REEP3 (11722064_at) / Fold change /veh REEP3 (11722064_at) / RFU IGLL1 (11728026_x_at) / Fold change /veh IGLL1 (11728026_x_at): dose or concentration left out as unconfirmed",
  "conditions": "ProbeSet 11743882_a_at; LIST D",
  "data": [
    {"smiles": "Nc1ccc(-c2cccs2)cc1NC(=O)c1ccc2c(c1)cc(C1CC1)n2CCN1CCOCC1", "note": "[ACY-1035]", "values": [
      {"measurement": "RFU, STRN3", "value": 114.91, "unit": "RFU"}
    ]}
  ]
}
